The text below walks through data of patent US20120251495A1, “PTERIN BASED THERAPIES FOR INFLAMMATORY CONDITIONS” (priority 2008, published 2012).

The target in one series is T1, IDO (Homo sapiens, UniProt P14902).
T1 construct: endogenous in cells; host or cells: human PBMCs (peripheral blood mononuclear cells), unstimulated or PHA-stimulated
Briefly: IDO inhibition in vitro with human PBMCs (kynurenine production). It is filed as cell-based. The protocol: The purpose of this in vitro study was to measure the IC50 values of IDO in PBMCs for 1) calcium pterin, CaCl2, and pterin to determine measurable synergistic effects between Ca^+2 and pterin, and 2) to compare these values with those of DCP for the assessment of relative IDO inhibitory strength. IC50 (μM) values for IDO inhibition by (1:4 mol:mol) calcium pterin, DCP, CaCl2, and pterin were determined in vitro with human PBMCs (both PHA-stimulated and unstimulated) by measuring kynurenine production as previously described (Winkler et al., 2006).

In series [1] the test system is MDA-MB-231 xenograph tumors. Briefly: Combined analysis of DCP + control mice: Day 42,43 relative tumor volume and DCP/APCP. In kind it is in vivo, nude mice. The protocol: Standard ANOVA models for group effects, curve fitting, and stepwise regression analyses were carried out using SPSS Graduate Pack 15.0 for Windows (2006), with p<0.05 used to determine significance.
Table 7 gives the plasma cytokine and relative tumor volume Spearman rank order correlations for the 12 DCP+ control mice (Control [n=3; from 1st experiment]; 23 mg/(kg d) DCP [n=5; from 2nd experiment]; and 69 mg/(kg d) DCP [n=4; from 2nd experiment]).
To further determine significant causal and correlational linkages among DCP dosage, plasma cytokine changes, and relative tumor volume, the following curve fitting analyses were carried out with the 12 DCP+ control mice. First, plotting DCP versus Day 42,43 Relative Tumor Volume yielded a significant quadratic relationship (FIG. 11). Second, curve fitting each cytokine versus Day 42,43 Relative Tumor Volume found no significant linear relationship and only one significant quadratic relationship, i.e., with IL-12 (p=0.004; FIG. 12). Third, plotting DCP versus IL-12 yielded a weakly significant quadratic relationship (p=0.048; FIG. 13).
Substantially more significant analogous plots were generated by first carrying out the Table 8 stepwise regression analysis which derived the DCP antitumor plasma cytokine pattern (DCP/APCP), shown to be a more significant cytokine composite measure than IL-12 taken alone. The Table 8 stepwise regression analysis of the cytokine data from the 12 DCP+ control mice allowed for the calculation of DCP/APCP scores for each mouse. These DCP/APCP scores are plotted versus DCP dosage in […], which illustrates the significant quadratic dose-response relationships of DCP versus the derived plasma DCP/APCP composite measure. From this figure the estimated optimum dosage of DCP for maximum tumor growth inhibition is 42 mg/(kg day), while the estimated optimum dosage for maximum DCP/APCP induction is 44 mg/(kg day).

Series [2] relates to indoleamine 2,3-dioxygenase (IDO). Briefly: Plasma tryptophan and kynurenine by HPLC (IDO activity), 1st experiment. The conditions noted are these: for Kynurenine / Tryptophan / Kyn/Trp: plasma; for Kynurenine / Tryptophan: HPLC; for Kyn/Trp: estimate of IDO activity. In kind it is in vivo, athymic nude (nu/nu) mice. As to the method:
Cytokine levels in EDTA plasma from the mice in the 1st experiment were determined by ELISA assay at Alta Analytical Laboratories (San Diego, Calif.) using a LINCOplex Kit (Linco Research). Tryptophan (Trp) and kynurenine (Kyn) concentrations were measured from EDTA plasma samples by high pressure liquid chromatography (HPLC) using 3-nitro-L-tyrosine as the internal standard (Widner et al., 1997). To estimate IDO activity, the kynurenine to tryptophan ratio (Kyn/Trp) was calculated and expressed as μmol kynurenine/mmol tryptophan (Wirleitner, 2003). The values from five mice in the 1st experiment are not included in the summary statistics given in Table 1 for the following reasons. One mouse from each of the four treatment groups was used to test the effects of mega dosing, i.e., with (1:4 mol:mol) calcium pterin at 100 mg/kg/day after Day 60 of treatment, and are excluded. Also excluded was one mouse from the (1:4 mol:mol) calcium pterin (7 mg/kg/day) group which expired suddenly a few days before blood was collected. Cytokine measurements <3.2 pg/ml are reported as n.d. (not detectable) because the standard curves used in the ELISA assays were not calibrated below that level.

A short description of series [3]: Toxicity by body weight changes in nude mice. In kind it is in vivo, athymic nude mice. The protocol:
The aims of the 1st experiment were to determine a dose-response curve for the (1:4 mol:mol) calcium pterin suspension, to compare the antitumor activity of this suspension to pterin alone (pterin control), and to test the effect of CaPterin mega-dosing at 100 mg/kg/day. Antitumor efficacy was evaluated in nude mice with MDA-MB-231 human tumor xenographs by Perry Scientific (San Diego, Calif.). In the 1st experiment, twenty-three athymic nude (nu/nu) female mice, ages 3-4 weeks, were purchased from Harlan Sprague Dawley, Inc. (Indianapolis, Ind.). 5×10^6 MDA-MB-231 cancer cells were injected subcutaneously into the right flank of each mouse. When tumors reached 3-5 mm in size, twenty mice were divided into four treatment/control groups of five mice each. The four treatment groups were: (1:4 mol:mol) calcium pterin (7 mg/kg/day); pterin (21 mg/kg/day); (1:4 mol:mol) calcium pterin (21 mg/kg/day); and sterile water control. […]
The control mice in the 1st experiment were treated with sterile water while the control mice in the 2nd experiment were untreated to evaluate the effect of mouse handling and gavaging upon tumor growth. […] Tumors were measured twice weekly with calipers and body weights taken twice weekly on the day of tumor measurements. […]

Series [4] has as its system MDA-MB-231 human breast xenographs. The conditions noted are these: Moheno, 2004, cited from earlier work.
The subject of series [5] is spontaneous mammary gland tumors. The note with it: C3H/HeN-MTV+ mice; Moheno, 2004; cited from earlier work.

T1 sequence (P14902 whole entry): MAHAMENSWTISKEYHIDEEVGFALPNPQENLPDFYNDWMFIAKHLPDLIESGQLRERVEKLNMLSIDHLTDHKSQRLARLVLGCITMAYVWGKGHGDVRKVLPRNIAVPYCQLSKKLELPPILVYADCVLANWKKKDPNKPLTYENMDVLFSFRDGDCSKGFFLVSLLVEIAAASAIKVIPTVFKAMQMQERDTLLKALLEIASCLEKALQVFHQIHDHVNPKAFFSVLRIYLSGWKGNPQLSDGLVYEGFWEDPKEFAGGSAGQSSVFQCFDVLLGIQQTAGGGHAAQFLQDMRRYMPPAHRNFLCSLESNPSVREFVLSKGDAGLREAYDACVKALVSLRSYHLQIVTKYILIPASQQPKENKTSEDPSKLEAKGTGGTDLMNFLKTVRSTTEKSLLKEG

As to `Nc1nc([O-])c2nccnc2n1.Nc1nc([O-])c2nccnc2n1.[Ca+2]` [DCP, dipterinyl calcium pentahydrate], on IDO (PHA stimulated per Table 3), the concentration for half-maximal inhibition (IC50) was 320 µM. At IDO (unstimulated per Table 3), the IC50 stood at 470 µM. Besides, the “tumor growth inhibition relative to controls (FIG. 9)” value in series [1] (23 mg/(kg day), Day 42,43 relative tumor volume, combined data) is recorded as “significant tumor growth inhibition”. In series [1] (DCP/APCP), the “plasma IL-4 correlated to antitumor response” value is reported as “increased”, the “plasma IL-6 correlated to antitumor response” value is on record as “decreased” and the “plasma IL-12 correlated to antitumor response” value was “increased”. In addition, the “dose range in which antitumor response and cytokine pattern are optimized” value in series [1] (nude mice with MDA-MB-231 xenograph tumors) is given as 40-46 mg/(kg day). Also, in series [1] (quadratic fit, FIG. 11), the “estimated optimum dosage for maximum DCP/APCP induction” value is listed as 44 mg/(kg day) and the “estimated optimum dosage for maximum tumor growth inhibition” value is on record as 42 mg/(kg day).

(1:4 mol:mol) calcium pterin [CaPterin]: in series [2] (7 mg/kg/day), the Kynurenine turned out to be 1.2 ± 0.2 µM, the Tryptophan worked out at 87.9 ± 14.6 µM and the Kyn/Trp is 14.1 ± 0.2 μmol/mmol. In series [2] (21 mg/kg/day), the Kynurenine is 1.8 ± 0.3 µM, the Tryptophan came out at 106.5 ± 7.8 µM and the Kyn/Trp is reported as 17.5 ± 3.8 μmol/mmol. The “plasma kynurenine response to dosage (ACIP model)” value in series [2] (stepwise regression) is “increase”. Besides, the “toxicity (appreciable weight loss)” value in series [3] (mega-dosed 100 mg/kg/day oral gavage for up to 31 days) was “no observed toxicity”. Also, in series [3] (mega-dosed group 100 mg/kg/day, one mouse, after 32 days), the “greatest weight loss (body weight)” value worked out at 8.1%. The T/C ratio in series [4] (7 mg/kg/day) is reported as 41%. Besides, the “antitumor efficacy against MDA-MB-231 human breast xenographs” value in series [4] (nude mice) is on record as “significant antitumor efficacy”. Also, in series [5], the “activity against spontaneous mammary gland tumors” value is “highly significant activity”.
